Test results from article PMC7456892 (Frontiers in Plant Science, 2020).
“Also recorded” adds a separate entry of the source. Where no end group is shown, it is not given here.

What was measured:
pepsin [1] = assay: SGF (200 mg NaCl, 10 units pepsin/µg test protein, pH 1.2); conditions: 37°C, up to 60 min
pancreatin = conditions: 37°C, up to 60 min
pepsin [2] = target: pepsin (Sus scrofa, UniProt P00791); assay: Simulated Gastric Fluid (SGF) pepsin digestion assay; format: in vitro ADME; conditions: pH 1.2
Protocol: Protein samples were analyzed for degradation by SDS PAGE followed by staining with RAPIDStain (Calbiochem) for 1 h after intense washing with ultrapure water. Digestion products from the SGF assays were analyzed by Matrix-assisted laser desorption/ionization time of flight (MALDI TOF) mass spectrometry. Samples were pre-incubated with 0.5 μl of 40 mM DTT for 20 min on the ground steel plate to reduce disulfide bonds. The samples were subsequently mixed with 2,5-dihydroxybenzoic acid (DHB) and the mass to charge ratio was measured for each sample using a Bruker Daltonics Ultraflex III MALDI-TOF/TOF Mass Spectrometer.

F. graminearum = format: cell-based, Fusarium graminearum isolate 73B1A; conditions: growth assay, 25°C, dark, 24 h, OD 595 nm
C. graminicola = format: cell-based, Colletotrichum graminicola isolate Carroll-1A-99; conditions: growth assay, 25°C, dark, 40 h, OD 595 nm

Sequence of pepsin (Sus scrofa, UniProt P00791) (P00791 60-385): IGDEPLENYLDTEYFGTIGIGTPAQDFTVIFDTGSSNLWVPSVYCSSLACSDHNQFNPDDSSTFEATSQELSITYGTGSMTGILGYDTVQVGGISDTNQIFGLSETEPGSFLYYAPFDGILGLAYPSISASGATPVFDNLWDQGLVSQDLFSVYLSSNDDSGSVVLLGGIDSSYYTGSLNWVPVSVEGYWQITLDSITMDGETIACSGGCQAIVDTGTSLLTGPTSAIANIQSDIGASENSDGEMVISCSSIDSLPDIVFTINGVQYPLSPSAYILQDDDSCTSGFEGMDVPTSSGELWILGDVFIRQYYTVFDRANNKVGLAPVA
Protocol for trypsin (pancreatin): Aliquots (320 µl) of each of SIF (60 mM KH2PO4, pH 7.5, 12 mg/ml pancreatin), SIF minus pancreatin and ultrapure water were added to individual glass vials with stir bars on a submersible stir plate (2mag MIX drive, Sigma Aldrich) in a 37°C water bath for 2 min before the addition of 40 µl of test protein (5 mg/ml) to each vial. Azoalbumin (A-2382, Sigma Aldrich) at a final concentration of 10 mg/ml in ultrapure water was used as the positive control for protease digestion. Protein degradation was assessed by SDS PAGE as described above.

| Substance | not cleaved (pepsin [1]) | cleaved bond (pepsin [1]) | other results |
| --- | --- | --- | --- |
| KDCLTRRHGFQGRCLFDRQCAHVCRSDGFIGGQCRGPLRKCFCSRPC | stable in the SGF assay for more than 60 min | – | – |
| RECKTESNTFPGICITKPPCRKACISEKFTDGHCSKILRRCLCTKPC | stable in the SGF assay for more than 60 min; also recorded: not cleaved | – | not cleaved (pancreatin): not digested by SIF (60 min) |
| RESKTESRAFALECITKPPCRKACISEFFTDGHCSKILRRCLCTKPS | – | A9-F10, within 1 minute; also recorded: F28-F29, within 1 minute | – |
| NaD1-C3S-C47S: NaD1 variant lacking the Cys3-Cys47 (fourth) disulfide bond (RESKTESNTFPGICITKPPCRKACISEKFTDGHCSKILRRCLCTKPS; not fully specified; ends and bridges not checked; UniProt Q8GTM0 26-72, looked up, variant C3S C47S) | – | – | Digestion in SGF, result in words (pepsin [2]): partially digested; Size of peptides after digestion in SIF (trypsin (pancreatin)): less than 2300 Da; Antifungal activity against F. graminearum compared with wild type defensin, in words (F. graminearum): as active as unmodified NaD1; Antifungal activity against C. graminicola compared with wild type defensin, in words (C. graminicola): as active as unmodified NaD1 |
| RECKTESHRFKGPCITKPPCRKACISEFFTDGHCSKILRRCLCTKPC | – | F28-F29, 10 min; also recorded: T16-K17, 10 min | – |
| NaD1: class II plant defensin from the ornamental tobacco Nicotiana alata, purified from flowers (RECKTESNTFPGICITKPPCRKACISEKFTDGHCSKILRRCLCTKPC; ends and bridges not checked; cysteine pairing not given here; UniProt Q8GTM0 26-72, looked up) | – | – | Mass of fragments Da at 60 min (pepsin [2]): 5296 Da |
| RECKTESRAFALECITKPPCRKACISEKFTDGHCSKILRRCLCTKPC | – | A9-F10, 60 min | – |
| RECKTESHRFKGPCITKPPCRKACISEKFTDGHCSKILRRCLCTKPC | not degraded in SGF (60 min) | – | – |
